The values below come from patent publication US20160333419A1, “GENE SIGNATURES ASSOCIATED WITH SENSITIVITY TO MDM2 INHIBITORS” (DAIICHI SANKYO COMPANY, LIMITED, priority 2014, published 2016).

Each structure is given as a SMILES string.

What all share (experiment): OncoPanel cytotoxicity assay
Common to all, as to assay type: cell-based

The subject of test [1] is SH-4. To be noted: Homo sapiens, 72 hour incubation. The procedure, abridged:
(§1)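 Cells grown in RPMI 1640 with 10% FBS (or a special medium) at 37° C, 5% CO2 were treated 24 hours after seeding for 72 hours with 10 concentrations (3.16-fold dilutions, 0.1% DMSO final). Nuclei were dye-stained and imaged; IC50 was fit from percent of control relative cell count.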

Test [2] has as its system T84. The conditions noted are these: Homo sapiens, 72 hour incubation. The procedure, abridged:
as §1

Test [3] concerns ZR-75-1. To be noted: Homo sapiens, 72 hour incubation. The procedure, abridged:
as §1

Test [4] deals with VCaP. To be noted: Homo sapiens, 72 hour incubation. In a few lines:
as §1

Test [5] concerns WM-115. The conditions noted are these: Homo sapiens, 72 hour incubation. The procedure, abridged:
as §1

Test [6] deals with MDA-MB-175-VII. To be noted: Homo sapiens, 72 hour incubation. The procedure, abridged:
as §1

Test [7] deals with CRO-AP5. To be noted: Homo sapiens, 72 hour incubation. In a few lines:
as §1

For test [8], the system named is IMR-32. To be noted: Homo sapiens, 72 hour incubation. The procedure, abridged: as §1
Test [9] deals with COLO 829. The conditions noted are these: Homo sapiens, 72 hour incubation. In a few lines:
as §1

Test [10] concerns CAL-54. The conditions noted are these: Homo sapiens, 72 hour incubation. The procedure, abridged:
as §1

For test [11], the system named is BT-483. To be noted: Homo sapiens, 72 hour incubation. The procedure, abridged:
as §1

The subject of test [12] is BT474. To be noted: Homo sapiens, BT-474, 72 hour incubation. In a few lines: as §1
Test [13] deals with NCI-H69. The conditions noted are these: Homo sapiens, 72 hour incubation. The procedure, abridged:
as §1

Test [14] relates to OE21. To be noted: Homo sapiens, 72 hour incubation. The procedure, abridged:
as §1

For test [15], the system named is COR-L105. To be noted: Homo sapiens, 72 hour incubation. In a few lines:
as §1

In test [16] the test system is DMS273. To be noted: Homo sapiens, DMS-273, 72 hour incubation. In a few lines: as §1
Test [17] relates to COR-L23. The conditions noted are these: Homo sapiens, 72 hour incubation. The procedure, abridged: as §1
The subject of test [18] is OE19. To be noted: Homo sapiens, 72 hour incubation. The procedure, abridged: as §1
In test [19] the test system is OE33. To be noted: Homo sapiens, 72 hour incubation. The procedure, abridged:
as §1

By IC50 is commonly meant the concentration needed to halve the response being measured. `CC[C@@H]1CNC2(CC2)CN1C(=O)[C@@H]1C[C@@H](F)CN1C(=O)C1=C(C(C)C)N2C(=N[C@@](C)(c3ccc(Cl)nc3)[C@H]2c2ccc(Cl)c(F)c2)S1` [Compound A, [(5R,6S)-5-(4-Chloro-3-fluorophenyl)-6-(6-chloropyridin-3-yl)-6-methyl-3-(propan-2-yl)-5,6-dihydroimidazo[2,1-b][1,3]thiazol-2-yl][(2S,4R)-2-{[(6R)-6-ethyl-4,7-diazaspiro[2.5]oct-7-yl]carbonyl}-4-fluoropyrrolidin-1-yl]methanone]: the IC50 was 0.59 µM in test [1]; over 40 µM in test [2]; 1.5 µM in test [3]; over 40 µM in test [4]; 0.564 µM in test [5]; over 40 µM in [6]. Further, the IC50 in test [7] was 0.22 µM; in [8] it was 0.828 µM; in test [9] it was 0.289 µM; in test [10], 0.602 µM; in test [11], 13.2 µM; in [12] it was over 40 µM.
`CC1(C)CCC2(CC1)N[C@@H](C(=O)N[C@@H]1CC[C@@H](C(N)=O)OC1)[C@H](c1ccnc(Cl)c1F)[C@]21C(=O)Nc2cc(Cl)ccc21` [Compound B, (3′R,4′S,5′R)—N-[(3R,6S)-6-carbamoyltetrahydro-2H-pyran-3-yl]-6″-chloro-4′-(2-chloro-3-fluoropyridin-4-yl)-4,4-dimethyl-2″-oxo-1″,2″-dihydrodispiro[cyclohexane-1,2′-pyrrolidine-3′,3″-indole]-5′-carboxamide]: the IC50 is 0.116 µM in test [1]; over 10 µM in test [13]; 9.81 µM in test [14]; 0.168 µM in test [15]; 9.08 µM in test [16]; 8.98 µM in [17]. In addition, the IC50 in [18] was over 10 µM; in [9], 0.0266 µM; in test [19], 7.58 µM; in test [12], over 10 µM.
